Results on 8 compounds are retold here after paper PMC10343279, “The Cytotoxic Activity of Dammarane-Type Triterpenoids Isolated from the Stem Bark of Aglaia cucullata (Meliaceae)” (Molecules, 2023).

Like-named read-outs stand apart in the source and are kept apart here. Where only a bound is given, the exact number is not on record here.

Holding throughout (assay type): cell-based
Data set [1] deals with B16-F10 melanoma cell line. In words: PrestoBlue cytotoxicity assay against B16-F10 melanoma cells. The following applies: 24 h incubation, run twice and averaged. The protocol: (§1) A normal cell (CV-1 kidney fibroblast cells) and two cancer cell lines (MCF-7 breast cancer and B16-F10 melanoma cells) were used to test the cytotoxic activities of compounds 1–7. In this experiment, two wavelengths (570 and 600 nm) were used because the measured cells were live cells so, to obtain the value/number of live cells, measurements were carried out at two wavelengths, namely before the reaction (blue) and after the reaction (pink) to produce a corrected absorbance value, which was interpreted as the number live cells after treatment. The results arising from the experiments, along with IC50 calculation graphs and cell morphology at each sample concentration, are presented in Figures S38–S58.
(§2) The PrestoBlue assay was utilized to conduct the cytotoxic bioassay. Additionally, Presto Blue reagent from Thermo Fisher Scientific, Uppsala, Sweden, was used to measure cell viability, which allowed for rapid evaluation of various resazurin-based cells. The rate of proliferation of the samples was then determined quantitatively through live-cell reduction capabilities. According to the findings, healthy cells kept a reduced habitat in their cytoplasm. By reducing resorufin (purple) with absorbance or fluorescence outputs, resazurin reduction (blue) acted as a viability indicator. The conversion correlated with the number of cells that were metabolically active. MCF-7, B16-F10, and CV-1 cell lines were cultured until they reached 70% confluence, and then they were removed, counted with a hemocytometer, and diluted with complete culture RPMI media. A total of 170,000 cells per well in 96-well plates with the samples were used. After an overnight growth period, the samples were treated with compounds 1–7 at escalating concentrations ([…]) in PBS, with 2% DMSO as the co-solvent. Additionally, cisplatin served as the positive control, and all samples were incubated for 24 h at 37° C with 5% CO2. Following incubation, the medium was immediately changed to 10 μL of the PrestoBlue reagent in 90 μL of the RPMI medium. As resorufin began to form, the color of the plates changed from blue to purple after being incubated for another one to two hours. Using a microplate reader to measure absorbance at 570 nm and 600 nm, the concentration required to inhibit growth by 50% was calculated as the IC50 value. […] The results of each test and analysis were averaged after being run twice.

The test system of data set [2] is CV-1 normal kidney fibroblast cell line. As to the kind of experiment: cells. The procedure:
as §1, §2

Data set [3] has as its system MCF-7 breast cancer cell line. In words: PrestoBlue cytotoxicity assay against MCF-7 breast cancer cells. Conditions: MCF-7, PrestoBlue, 24 h incubation, run twice and averaged. The protocol: as §1, §2
The mark [4] stands for this setting: Mus musculus, read-out: IC50 for B16-F10.
The mark [5] stands for this setting: Mus musculus, read-out: IC50 for B16-F10 (μg/mL).
Setting [6] is: Fibroblast, CV-1 normal cells, PrestoBlue, 24 h incubation, run twice and averaged, read-out: IC50 for CV-1.
The mark [7] stands for this setting: Fibroblast, CV-1 normal cells, PrestoBlue, 24 h incubation, run twice and averaged, read-out: IC50 for CV-1 (μg/mL).
The mark [8] stands for this setting: Homo sapiens, MCF7, read-out: IC50 for MCF-7.
The mark [9] stands for this setting: Homo sapiens, MCF7, read-out: IC50 for MCF-7 (μg/mL).

In the case of `CC(=O)O[C@@H]1CC[C@@]2(C)C(CC[C@]3(C)C2CCC2C([C@]4(C)CCC(=O)O4)CC[C@]23C)C1(C)C` (stereo partly drawn) [Compound 6, 3α-acetyl-cabraleahydroxy lactone], the IC50 came to 274 µM in data set [1] (setting [4]); 126 µg/mL in data set [1] (setting [5]); 285 µM in data set [2] (setting [6]); 131 µg/mL in data set [2] (setting [7]); 274 µM in data set [3] (setting [8]); 126 µg/mL in data set [3] (setting [9]).
As to `N.N.[Cl][Pt][Cl]` [Cisplatin, cisplatin, reference compound], the “IC50 for B16-F10” value in data set [1] is 43.00 µg/mL. Besides, the IC50 in data set [1] (read-out: IC50 for B16-F10) came to 143 µM; in data set [2] (CV-1 normal cells, PrestoBlue, 24 h incubation, run twice and averaged, read-out: IC50 for CV-1), 143 µM; in data set [3] (read-out: IC50 for MCF-7), 176 µM. Further, in data set [2] (CV-1 normal cells, PrestoBlue, 24 h incubation, run twice and averaged), the “IC50 for CV-1” value was 43.00 µg/mL. Moreover, the “IC50 for MCF-7” value in data set [3] amounted to 53.00 µg/mL.
With `CC(C)=CCC[C@](C)(O)C1CC[C@]2(C)C1CC[C@@H]1[C@@]3(C)CCC(=O)C(C)(C)C3CC[C@]12C` (stereo partly drawn) [Compound 3, 20S-hydroxy-dammar-24-en-3-on], the IC50 in data set [1] (setting [4]) is 111 µM; in data set [1] (setting [5]), 49.1 µg/mL; in data set [2] (setting [6]), > 300 µM; in data set [2] (setting [7]), > 300 µg/mL; in data set [3] (setting [8]), > 300 µM; in data set [3] (setting [9]), 142 µg/mL. For the same compound, the “cell death based on morphological observation” value in data set [2] is reported as “no cell death at all concentration levels”.
Turning to `CC(=O)O[C@@H]1CC[C@@]2(C)C(CC[C@]3(C)C2CCC2C([C@]4(C)CC[C@@H](C(C)(C)O)O4)CC[C@]23C)C1(C)C` (stereo partly drawn) [Compound 7, 3α-acetyl-20S,24S-epoxy-3α,25-dihydroxydammarane], the IC50 in data set [1] (setting [4]) was 158 µM; in data set [1] (setting [5]) it was 79.4 µg/mL; in data set [2] (setting [6]) it was > 300 µM; in data set [2] (setting [7]) it was > 300 µg/mL; in data set [3] (setting [8]), 195 µM; in data set [3] (setting [9]) it was 97.9 µg/mL. For the same compound, the “cell death based on morphological observation” value in data set [2] is “no cell death at all concentration levels”.
For `CC(C)(O)[C@@H]1CC[C@@](C)(C2CC[C@]3(C)C2CCC2[C@@]4(C)CC[C@@H](O)C(C)(C)C4CC[C@]23C)O1` (stereo partly drawn) [Compound 1, 20S,24S-epoxy-3α,25-dihydroxy-dammarane], the IC50 in data set [1] (setting [4]) came to 97.3 µM; in data set [1] (setting [5]) it was 44.8 µg/mL; in data set [2] (setting [6]), 174 µM; in data set [2] (setting [7]) it was 80.1 µg/mL; in data set [3] (setting [8]), 142 µM; in data set [3] (setting [9]) it was 65.5 µg/mL.
For `C=C(C)[C@@H]1CC[C@]2(C)[C@H](CC[C@@H]3[C@@H]([C@]4(C)CC[C@@H](C(C)(C)O)O4)CC[C@]32C)[C@@]1(C)CCC(=O)O` [Compound 4, eichlerianic acid], the IC50 in data set [1] (setting [4]) is > 300 µM; in data set [1] (setting [5]), 275 µg/mL; in data set [2] (setting [6]) it was 288 µM; in data set [2] (setting [7]), 137 µg/mL; in data set [3] (setting [8]), > 300 µM; in data set [3] (setting [9]), > 300 µg/mL.
Consider `COC1CC[C@@](C)(C2CC[C@]3(C)C2CCC2[C@@]4(C)CCC(=O)C(C)(C)C4CC[C@]23C)O1` (stereo partly drawn) [Compound 5, (20S,24RS)-23,24-epoxy-24-methoxy-25,26,27-tris-nor dammar-3-one], for which the IC50 in data set [1] (setting [4]) is 105 µM; in data set [1] (setting [5]), 45.4 µg/mL; in data set [2] (setting [6]), > 300 µM; in data set [2] (setting [7]), > 300 µg/mL; in data set [3] (setting [8]), 133 µM; in data set [3] (setting [9]), 57.3 µg/mL. Further, the “cell death based on morphological observation” value in data set [2] is recorded as “no cell death at all concentration levels”.
Take `C=C(CCC=C(C)C)C1CC[C@]2(C)C1CC[C@@H]1[C@@]3(C)CCC(=O)C(C)(C)C3CC[C@]12C` (stereo partly drawn) [Compound 2, dammaradienone]: the IC50 in data set [1] (setting [4]) was 129 µM; in data set [1] (setting [5]), 54.8 µg/mL; in data set [2] (setting [6]), 195 µM; in data set [2] (setting [7]) it was 82.8 µg/mL; in data set [3] (setting [8]) it was 132 µM; in data set [3] (setting [9]) it was 56.1 µg/mL.
